{"source": "patent US12678446B2", "about": "(PFIZER INC., priority 2020, dated 2026)", "key": {"[1]": {"tested_on": "RSV (RSV A2 ECACC, 0709161v)", "assay": "RSV plaque reduction assay", "assay_type": "cell-based, respiratory syncytial virus", "details": "human respiratory syncytial virus, HepG2, read-out: RSV A2 Plaque EC50, RSV A2 in Hep-G2 cells; mean of at least two experiments unless noted (n = 1)", "how_it_was_run": "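Eight-point compound dilutions were premixed with RSV A2 (100 PFU/well) and applied to confluent Hep-G2 cells for 2 h, followed by a 2-day incubation at 37° C. under compound-containing 0.8% CMC overlay. EC50 comes from immunostained plaque counts relative to untreated virus wells, averaged over ≥2 runs.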"}, "cell toxicity CC50": {"assay": "cell toxicity CC50", "assay_type": "cell-based", "details": "human; Hep-G2 cells; mean of at least two experiments; read-out: Cell Cytotoxicity CC50"}}}
{"smiles": "COC1CN(c2ccc(-c3nn4c(c3C(=O)N[C@H]3N=C(c5ccccc5)c5cccc(F)c5NC3=O)O[C@H](C)CC4)cn2)C1", "note": "[Example 144, (5R)-N-[(3S)-9-fluoro-2-oxo-5-phenyl-1,3-dihydro-1,4-benzodiazepin-3-yl]-2-[6-(3-methoxyazetidin-1-yl)pyridin-3-yl]-5-methyl-6,7-dihydro-5H-pyrazolo[5,1-b][1,3]oxazine-3-carboxamide]", "values": [{"measurement": "EC50", "setting": "[1]", "value": 101, "unit": "nM"}, {"measurement": "CC50", "setting": "cell toxicity CC50", "value": "> 25000", "unit": "nM"}]}
{"smiles": "CO[C@@H]1CCN(c2ccc(-c3nn4c(c3C(=O)N[C@H]3N=C(c5ccccc5)c5cccc(F)c5NC3=O)O[C@H](C)CC4)cn2)C1", "note": "[Example 145, (5R)-N-[(3S)-9-fluoro-2-oxo-5-phenyl-1,3-dihydro-1,4-benzodiazepin-3-yl]-2-[6-[(3R)-3-methoxypyrrolidin-1-yl]pyridin-3-yl]-5-methyl-6,7-dihydro-5H-pyrazolo[5,1-b][1,3]oxazine-3-carboxamide]", "values": [{"measurement": "EC50", "setting": "[1]", "value": 278, "unit": "nM"}, {"measurement": "CC50", "setting": "cell toxicity CC50", "value": "> 25000", "unit": "nM"}]}
{"smiles": "CO[C@H]1CCN(c2ccc(-c3nn4c(c3C(=O)N[C@H]3N=C(c5ccccc5)c5cccc(F)c5NC3=O)O[C@H](C)CC4)cn2)C1", "note": "[Example 146, (5R)-N-[(3S)-9-fluoro-2-oxo-5-phenyl-1,3-dihydro-1,4-benzodiazepin-3-yl]-2-[6-[(3S)-3-methoxypyrrolidin-1-yl]pyridin-3-yl]-5-methyl-6,7-dihydro-5H-pyrazolo[5,1-b][1,3]oxazine-3-carboxamide]", "values": [{"measurement": "EC50", "setting": "[1]", "value": 294, "unit": "nM"}, {"measurement": "CC50", "setting": "cell toxicity CC50", "value": "> 25000", "unit": "nM"}]}
{"smiles": "Cn1ncc2c(-c3nn4c(c3C(=O)N[C@H]3N=C(c5ccccc5)c5cccc(F)c5NC3=O)OCCC4)cccc21", "note": "[Example 147, N-[(3S)-9-fluoro-2-oxo-5-phenyl-1,3-dihydro-1,4-benzodiazepin-3-yl]-2-(1-methylindazol-4-yl)-6,7-dihydro-5H-pyrazolo[5,1-b][1,3]oxazine-3-carboxamide]", "values": [{"measurement": "EC50", "setting": "[1]", "value": 137, "unit": "nM"}, {"measurement": "CC50", "setting": "cell toxicity CC50", "value": "> 25000", "unit": "nM"}]}
{"smiles": "CC(C)n1cc(-c2nn3c(c2C(=O)N[C@H]2N=C(c4ccccc4)c4cccc(F)c4NC2=O)OCCC3)cn1", "note": "[Example 148, N-[(3S)-9-fluoro-2-oxo-5-phenyl-1,3-dihydro-1,4-benzodiazepin-3-yl]-2-(1-propan-2-ylpyrazol-4-yl)-6,7-dihydro-5H-pyrazolo[5,1-b][1,3]oxazine-3-carboxamide]", "values": [{"measurement": "EC50", "setting": "[1]", "value": 72, "unit": "nM"}, {"measurement": "CC50", "setting": "cell toxicity CC50", "value": "> 25000", "unit": "nM"}]}
{"smiles": "Cn1ncc2c(-c3nn4c(c3C(=O)N[C@H]3N=C(c5ccccc5)c5ccccc5NC3=O)OCCC4)cccc21", "note": "[Example 149, 2-(1-Methylindazol-4-yl)-N-[(3S)-2-oxo-5-phenyl-1,3-dihydro-1,4-benzodiazepin-3-yl]-6,7-dihydro-5H-pyrazolo[5,1-b][1,3]oxazine-3-carboxamide]", "values": [{"measurement": "EC50", "setting": "[1]", "value": 194, "unit": "nM"}, {"measurement": "CC50", "setting": "cell toxicity CC50", "value": "> 25000", "unit": "nM"}]}
{"smiles": "O=C(N[C@H]1N=C(c2ccccc2)c2cccc(F)c2NC1=O)c1c(-c2cnn(CC(F)(F)F)c2)nn2c1OCCC2", "note": "[Example 150, N-[(3S)-9-fluoro-2-oxo-5-phenyl-1,3-dihydro-1,4-benzodiazepin-3-yl]-2-[1-(2,2,2-trifluoroethyl)pyrazol-4-yl]-6,7-dihydro-5H-pyrazolo[5,1-b][1,3]oxazine-3-carboxamide]", "values": [{"measurement": "EC50", "setting": "[1]", "value": 61, "unit": "nM"}, {"measurement": "CC50", "setting": "cell toxicity CC50", "value": "> 25000", "unit": "nM"}]}
{"smiles": "O=C(N[C@H]1N=C(c2ccccc2)c2ccccc2NC1=O)c1c(-c2cnn(CC(F)(F)F)c2)nn2c1OCCC2", "note": "[Example 151, N-[(3S)-2-oxo-5-phenyl-1,3-dihydro-1,4-benzodiazepin-3-yl]-2-[1-(2,2,2-trifluoroethyl)pyrazol-4-yl]-6,7-dihydro-5H-pyrazolo[5,1-b][1,3]oxazine-3-carboxamide]", "values": [{"measurement": "EC50", "setting": "[1]", "value": 108, "unit": "nM"}, {"measurement": "CC50", "setting": "cell toxicity CC50", "value": "> 25000", "unit": "nM"}]}
{"smiles": "O=C(N[C@H]1N=C(c2ccccc2)c2cccc(F)c2NC1=O)c1c(-c2cnn(C3CCOCC3)c2)nn2c1OCCC2", "note": "[Example 152, N-[(3S)-9-Fluoro-2-oxo-5-phenyl-1,3-dihydro-1,4-benzodiazepin-3-yl]-2-[1-(oxan-4-yl)pyrazol-4-yl]-6,7-dihydro-5H-pyrazolo[5,1-b][1,3]oxazine-3-carboxamide]", "values": [{"measurement": "EC50", "setting": "[1]", "value": 84, "unit": "nM"}, {"measurement": "CC50", "setting": "cell toxicity CC50", "value": "> 25000", "unit": "nM"}]}
{"smiles": "C[C@@H]1CCn2nc(-c3ccc(CO)cc3F)c(C(=O)N[C@H]3N=C(c4ccccc4)c4ccccc4NC3=O)c2O1", "note": "[Example 154, (5R)-2-[2-Fluoro-4-(hydroxymethyl)phe-nyl]-5-methyl-N-[(3S)-2-oxo-5-phenyl-1,3-dihydro-1,4-benzodiazepin-3-yl]-6,7-dihydro-5H-pyrazolo[5,1-b][1,3]oxazine-3-carboxamide]", "values": [{"measurement": "EC50", "setting": "[1]", "value": 91, "unit": "nM"}, {"measurement": "CC50", "setting": "cell toxicity CC50", "value": "> 25000", "unit": "nM"}]}
{"smiles": "C[C@@H]1CCn2nc(-c3ccc(CO)nc3)c(C(=O)N[C@H]3N=C(c4ccccc4)c4cccc(F)c4NC3=O)c2O1", "note": "[Example 155, (5R)-N-[(3S)-9-fluoro-2-oxo-5-phenyl-1,3-dihydro-1,4-benzodiazepin-3-yl]-2-[6-(hydroxymethyl)pyri-din-3-yl]-5-methyl-6,7-dihydro-5H-pyrazolo[5,1-b][1,3]oxazine-3-carboxamide]", "values": [{"measurement": "EC50", "setting": "[1]", "value": 219, "unit": "nM"}, {"measurement": "CC50", "setting": "cell toxicity CC50", "value": "> 25000", "unit": "nM"}]}
{"smiles": "C[C@H]1CCn2nc(-c3cnn(C4CCOCC4)c3)c(C(=O)N[C@H]3N=C(c4ccccc4)c4cccc(F)c4NC3=O)c2O1", "note": "[Example 156, (5S)-N-[(3S)-9-fluoro-2-oxo-5-phenyl-1,3-dihydro-1,4-benzodiazepin-3-yl]-5-methyl-2-[1-(oxan-4-yl)pyrazol-4-yl]-6,7-dihydro-5H-pyrazolo[5,1-b][1,3]oxazine-3-carboxamide]", "values": [{"measurement": "EC50", "setting": "[1]", "value": 39, "unit": "nM"}, {"measurement": "CC50", "setting": "cell toxicity CC50", "value": "> 25000", "unit": "nM"}]}
{"smiles": "C[C@H]1CCn2nc(-c3cnn(CC(F)(F)F)c3)c(C(=O)N[C@H]3N=C(c4ccccc4)c4cccc(F)c4NC3=O)c2O1", "note": "[Example 157, (5S)-N-[(3S)-9-fluoro-2-oxo-5-phenyl-1,3-dihydro-1,4-benzodiazepin-3-yl]-5-methyl-2-[1-(2,2,2-trifluoroethyl)pyrazol-4-yl]-6,7-dihydro-5H-pyrazolo[5,1-b][1,3]oxazine-3-carboxamide]", "values": [{"measurement": "EC50", "setting": "[1]", "value": 48, "unit": "nM"}, {"measurement": "CC50", "setting": "cell toxicity CC50", "value": "> 25000", "unit": "nM"}]}
{"smiles": "CCn1cc(-c2nn3c(c2C(=O)N[C@H]2N=C(c4ccccc4)c4cccc(F)c4NC2=O)O[C@@H](C)CC3)cn1", "note": "[Example 158, (5S)-2-(1-Ethylpyrazol-4-yl)-N-[(3S)-9-fluoro-2-oxo-5-phenyl-1,3-dihydro-1,4-benzodiazepin-3-yl]-5-methyl-6,7-dihydro-5H-pyrazolo[5,1-b][1,3]oxazine-3-carboxamide]", "values": [{"measurement": "EC50", "setting": "[1]", "value": 48, "unit": "nM"}, {"measurement": "CC50", "setting": "cell toxicity CC50", "value": "> 25000", "unit": "nM"}]}
{"smiles": "C[C@@H]1CCn2nc(-c3cn[nH]c3)c(C(=O)N[C@H]3N=C(c4ccccc4)c4cccc(F)c4NC3=O)c2O1", "note": "[Example 159, (5R)-N-[(3S)-9-fluoro-2-oxo-5-phenyl-1,3-dihydro-1,4-benzodiazepin-3-yl]-5-methyl-2-(1H-pyrazol-4-yl)-6,7-dihydro-5H-pyrazolo[5,1-b][1,3]oxazine-3-carboxamide]", "values": [{"measurement": "EC50", "setting": "[1]", "value": 395, "unit": "nM"}, {"measurement": "CC50", "setting": "cell toxicity CC50", "value": "> 25000", "unit": "nM"}]}
{"smiles": "O=C(N[C@H]1N=C(c2ccccc2)c2cccc(F)c2NC1=O)c1c(-c2ccccc2F)nn2c1OCC(O)C2", "note": "(stereo partly drawn) [Example 160, 2-(2-Fluorophenyl)-6-hydroxy-N-[(3S)-9-fluoro-2-oxo-5-phenyl-1,3-dihydro-1,4-benzodiazepin-3-yl]-6,7-dihydro-5H-pyrazolo[5,1-b][1,3]oxazine-3-carboxamide]", "values": [{"measurement": "EC50", "setting": "[1]", "value": 148, "unit": "nM"}, {"measurement": "CC50", "setting": "cell toxicity CC50", "value": "> 25000", "unit": "nM"}]}
{"smiles": "C[C@@H]1CCn2nc(C3CCN(S(C)(=O)=O)CC3)c(C(=O)N[C@H]3N=C(c4ccccc4)c4cccc(F)c4NC3=O)c2O1", "note": "[Example 161, (5R)-N-[(3S)-9-fluoro-2-oxo-5-phenyl-1,3-dihydro-1,4-benzodiazepin-3-yl]-5-methyl-2-(1-methylsulfonylpiperi-din-4-yl)-6,7-dihydro-5H-pyrazolo[5,1-b][1,3]oxazine-3-carboxamide]", "values": [{"measurement": "EC50", "setting": "[1]", "value": 54, "unit": "nM"}, {"measurement": "CC50", "setting": "cell toxicity CC50", "value": "> 25000", "unit": "nM"}]}
{"smiles": "C[C@@H]1CCn2nc(C3CCN(S(C)(=O)=O)CC3)c(C(=O)N[C@H]3N=C(c4ccccc4)c4ccccc4NC3=O)c2O1", "note": "[Example 162, (5R)-5-Methyl-2-(1-methylsulfonylpiperi-din-4-yl)-N-[(3S)-2-oxo-5-phenyl-1,3-dihydro-1,4-benzodiazepin-3-yl]-6,7-dihydro-5H-pyrazolo[5,1-b][1,3]oxazine-3-carboxamide]", "values": [{"measurement": "EC50", "setting": "[1]", "value": 166, "unit": "nM"}, {"measurement": "CC50", "setting": "cell toxicity CC50", "value": "> 25000", "unit": "nM"}]}
{"smiles": "CCN(CC)CC1COc2c(C(=O)N[C@H]3N=C(c4ccccc4)c4cccc(F)c4NC3=O)c(-c3ccccc3F)nn2C1", "note": "(stereo partly drawn) [Example 164, 6-(Diethylaminomethyl)-N-[(3S)-9-fluoro-2-oxo-5-phenyl-1,3-dihydro-1,4-benzodiazepin-3-yl]-2-(2-fluorophenyl)-6,7-dihydro-5H-pyrazolo[5,1-b][1,3]oxazine-3-carboxamide]", "values": [{"measurement": "EC50", "setting": "[1]", "value": 87, "unit": "nM"}, {"measurement": "CC50", "setting": "cell toxicity CC50", "value": "> 25000", "unit": "nM"}]}
{"smiles": "C[C@@H]1CCn2nc(-c3cnn(CCN(C)C)c3)c(C(=O)N[C@H]3N=C(c4ccccc4)c4cccc(F)c4NC3=O)c2O1", "note": "[Example 165, (5R)-2-[1-[2-(Dimethylamino)ethyl]pyrazol-4-yl]-N-[(3S)-9-fluoro-2-oxo-5-phenyl-1,3-dihydro-1,4-benzodiazepin-3-yl]-5-methyl-6,7-dihydro-5H-pyrazolo[5,1-b][1,3]oxazine-3-carboxamide]", "values": [{"measurement": "EC50", "setting": "[1]", "value": 349, "unit": "nM"}, {"measurement": "CC50", "setting": "cell toxicity CC50", "value": "> 25000", "unit": "nM"}]}
{"smiles": "CN(C)CC1CCn2nc(-c3ccccc3F)c(C(=O)N[C@H]3N=C(c4ccccc4)c4cccc(F)c4NC3=O)c2O1", "note": "(stereo partly drawn) [Example 166, 5-[(Dimethylamino)methyl]-N-[(3S)-9-fluoro-2-oxo-5-phenyl-1,3-dihydro-1,4-benzodiazepin-3-yl]-2-(2-fluorophenyl)-6,7-dihydro-5H-pyrazolo[5,1-b][1,3]oxazine-3-carboxamide]", "values": [{"measurement": "EC50", "setting": "[1]", "value": 201, "unit": "nM"}, {"measurement": "CC50", "setting": "cell toxicity CC50", "value": "> 25000", "unit": "nM"}]}
{"smiles": "O=C(N[C@H]1N=C(c2ccccc2)c2cccc(F)c2NC1=O)c1c(-c2ccccc2F)nn2c1OC(CN1CCOCC1)CC2", "note": "(stereo partly drawn) [Example 167, N-[(3S)-9-fluoro-2-oxo-5-phenyl-1,3-dihydro-1,4-benzodiazepin-3-yl]-2-(2-fluorophenyl)-5-(morpholin-4-ylmethyl)-6,7-dihydro-5H-pyrazolo[5,1-b][1,3]oxazine-3-carboxamide]", "values": [{"measurement": "EC50", "setting": "[1]", "value": 91, "unit": "nM"}, {"measurement": "CC50", "setting": "cell toxicity CC50", "value": "> 25000", "unit": "nM"}]}
